Experimental data: PubChem BioAssay AID248 (DTP/NCI, 2004)
Values joined by “and” are separate entries in the source; they are usually repeats but may differ in a detail not shown here. Equal values may be shown once. Toxic doses and inconclusive results are not listed.

Tested on: L1210 leukemia ip in BDF1 mice, survival T/C
Experiment: NCI In Vivo Anticancer Drug Screen. Data for tumor model L1210 Leukemia (intraperitoneal) in B6D2F1 (BDF1) mice
Conditions: endpoint: mean survival time, higher = longer survival
In short: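 Antitumor effect is assessed in tumor-bearing animals. Survival in the compound arm is compared with a vehicle-dosed control arm and expressed as their quotient.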

[1] = dose: 100.0 mg/kg/injection, schedule: Q01DX009 (ip), vehicle: saline with Tween-80
[2] = dose: 100.0 mg/kg/injection, schedule: Q04DX003 (ip), vehicle: saline with Tween-80
[3] = dose: 200.0 mg/kg/injection, schedule: Q01DX009 (ip), vehicle: saline with Tween-80
[4] = dose: 200.0 mg/kg/injection, schedule: Q04DX003 (ip), vehicle: saline with Tween-80
[5] = dose: 400.0 mg/kg/injection, schedule: Q01DX009 (ip), vehicle: saline with Tween-80
[6] = dose: 50.0 mg/kg/injection, schedule: Q01DX009 (ip), vehicle: saline with Tween-80
[7] = dose: 100.0 mg/kg/injection, schedule: Q04DX003 (ip), vehicle: saline
[8] = dose: 200.0 mg/kg/injection, schedule: Q04DX003 (ip), vehicle: saline
[9] = dose: 50.0 mg/kg/injection, schedule: Q04DX003 (ip), vehicle: Klucel (hydroxypropylcellulose) (HPC)
[10] = dose: 400.0 mg/kg/injection, schedule: Q04DX003 (ip), vehicle: saline with Tween-80
[11] = dose: 100.0 mg/kg/injection, schedule: Q04DX003 (ip), vehicle: Klucel (hydroxypropylcellulose) (HPC)
[12] = dose: 200.0 mg/kg/injection, schedule: Q04DX003 (ip), vehicle: Klucel (hydroxypropylcellulose) (HPC)
[13] = dose: 400.0 mg/kg/injection, schedule: Q04DX003 (ip), vehicle: Klucel (hydroxypropylcellulose) (HPC)
[14] = dose: 100.0 mg/kg/injection, schedule: Q01DX009 (ip), vehicle: Klucel (hydroxypropylcellulose) (HPC)
[15] = dose: 200.0 mg/kg/injection, schedule: Q01DX009 (ip), vehicle: Klucel (hydroxypropylcellulose) (HPC)

CCc1cc(C)cc(OC(=O)Nc2ccccc2)c1
T/C [1]: 87 % of control
T/C [2]: 93 % of control
T/C [3]: 88 % of control
T/C [4]: 93 % of control
T/C [5]: 92 % of control

CC(=O)OC1CCC(NC(=O)N(CCF)N=O)CC1 (centres undefined)
T/C (dose: 20.0 mg/kg/injection, schedule: Q01DX001 (ip), vehicle: other): 298 % of control
T/C (dose: 40.0 mg/kg/injection, schedule: Q01DX001 (ip), vehicle: other): 333 % of control

O=C(N/N=C/c1cccc(F)c1)c1ccc(Cl)cc1
T/C [6]: 94 % of control
T/C [1]: 91 % of control
T/C [3]: 94 % of control

CCCCS(=O)CC(O)(c1ccccc1)c1ccccc1 (centres undefined)
T/C (dose: 100.0 mg/kg/injection, schedule: Q03DX002 (ip), vehicle: saline with Tween-80): 102 % of control
T/C (dose: 200.0 mg/kg/injection, schedule: Q03DX002 (ip), vehicle: saline with Tween-80): 105 % of control

COc1ccc(C(=O)NN2C(N)=NC(N)=NC2(C)C)cc1
T/C [7]: 94 % of control
T/C [8]: 97 % of control

Oc1c(Cl)cc(Cl)c(Cl)c1CN1CCOCC1
T/C (dose: 55.0 mg/kg/injection, schedule: Q01DX Z (ip), vehicle: methylcellulose (MC)): 98 % of control
T/C (dose: 83.0 mg/kg/injection, schedule: Q01DX Z (ip), vehicle: methylcellulose (MC)): 116 % of control
T/C (dose: 125.0 mg/kg/injection, schedule: Q01DX Z (ip), vehicle: methylcellulose (MC)): 104 % of control

O=C1NC2/C=C/CCCCC12 (centres undefined)
T/C (dose: 100.0 mg/kg/injection, schedule: Q04DX003 (ip), vehicle: other): 95 % of control
T/C (dose: 200.0 mg/kg/injection, schedule: Q04DX003 (ip), vehicle: other): 101 % of control
T/C (dose: 400.0 mg/kg/injection, schedule: Q04DX003 (ip), vehicle: other): 92 % of control

CCCCCCCCCCCCCCCCCc1cc(=O)n(-c2ccc(NC(=O)CCC(=O)OC)cc2)n1C
T/C (dose: 12.5 mg/kg/injection, schedule: Q04DX003 (ip), vehicle: Klucel (hydroxypropylcellulose) (HPC)): 93 % of control
T/C [9]: 86 % of control

CCCCNC(=S)N(CCCC)CCCC
T/C [7]: 96 % of control
T/C [8]: 103 % of control
T/C (dose: 400.0 mg/kg/injection, schedule: Q04DX003 (ip), vehicle: saline): 96 % of control

C1COC(N2CC3CCC(CC3)C2)=N1
T/C (dose: 75.0 mg/kg/injection, schedule: Q01DX001 (ip), vehicle: saline): 96 % of control
T/C (dose: 150.0 mg/kg/injection, schedule: Q01DX001 (ip), vehicle: saline): 105 % of control

O=C1c2ccccc2C(=O)N1CNCCCNCN1C(=O)c2ccccc2C1=O
T/C [2]: 93 % of control
T/C [4]: 95 % of control
T/C [10]: 96 % of control

COc1cc(-c2[o+]c3cc(O)cc(O)c3cc2OC2OC(CO)C(O)C(O)C2O)cc(OC)c1O (centres undefined)
T/C (dose: 100.0 mg/kg/injection, schedule: Q01DX001 (ip), vehicle: carboxymethylcellulose (CMC)): 92 % of control
T/C (dose: 100.0 mg/kg/injection, schedule: Q04DX003 (ip), vehicle: saline sonified): 98 % of control
T/C (dose: 200.0 mg/kg/injection, schedule: Q01DX001 (ip), vehicle: carboxymethylcellulose (CMC)): 101 % of control
T/C (dose: 400.0 mg/kg/injection, schedule: Q01DX001 (ip), vehicle: carboxymethylcellulose (CMC)): 100 % of control

Clc1ccc(C(Cl)c2ccc(Cl)cc2)cc1
T/C [11]: 105 % of control
T/C [12]: 107 % of control
T/C [13]: 107 % of control

Cc1nc2ccc(NC(=O)c3ccccc3)cc2o1
T/C [11]: 105 % of control
T/C [12]: 105 % of control
T/C [13]: 100 % of control

Cc1c2ccncc2cc2c3ccccc3n(C)c12
T/C (dose: 37.5 mg/kg/injection, schedule: Q04DX003 (ip), vehicle: Klucel (hydroxypropylcellulose) (HPC)): 98 % of control
T/C (dose: 75.0 mg/kg/injection, schedule: Q04DX003 (ip), vehicle: Klucel (hydroxypropylcellulose) (HPC)): 103 % of control
T/C (dose: 150.0 mg/kg/injection, schedule: Q04DX003 (ip), vehicle: Klucel (hydroxypropylcellulose) (HPC)): 102 % of control
T/C (dose: 300.0 mg/kg/injection, schedule: Q04DX003 (ip), vehicle: Klucel (hydroxypropylcellulose) (HPC)): 115 % of control

O=C(Nc1cccc(C(=O)O)c1)Nc1ccc(Cl)c(C(F)(F)F)c1
T/C [1]: 87 % of control
T/C [3]: 100 % of control

CC(C)C(NC(=O)CCNC(=O)OCc1ccccc1)C(=O)OCc1ccccc1 (centres undefined)
T/C [2]: 93 % of control
T/C [4]: 92 % of control
T/C [10]: 95 % of control

Clc1ccc(SCN2CCCCC2)cc1
T/C (dose: 25.0 mg/kg/injection, schedule: Q04DX003 (ip), vehicle: Klucel (hydroxypropylcellulose) (HPC)): 93 % of control
T/C [9]: 95 % of control
T/C [11]: 93 % of control and 95 % of control

CCOC(=O)c1cc2ccccc2n1-c1ccccc1
T/C [1]: 111 % of control
T/C [3]: 104 % of control
T/C [5]: 104 % of control

N#Cc1cc([N+](=O)[O-])c(Cl)c([N+](=O)[O-])c1Cl
T/C (dose: 3.13 mg/kg/injection, schedule: Q01DX009 (ip), vehicle: saline with Tween-80): 95 % of control
T/C (dose: 6.25 mg/kg/injection, schedule: Q01DX009 (ip), vehicle: saline with Tween-80): 108 % of control
T/C (dose: 6.25 mg/kg/injection, schedule: Q04DX003 (ip), vehicle: saline with Tween-80): 98 % of control
T/C (dose: 12.5 mg/kg/injection, schedule: Q01DX009 (ip), vehicle: saline with Tween-80): 101 % of control
T/C (dose: 12.5 mg/kg/injection, schedule: Q04DX003 (ip), vehicle: saline with Tween-80): 95 % of control

CCOC(=O)C(=O)Nc1ncn[nH]1
T/C (dose: 100.0 mg/kg/injection, schedule: Q01DX005 (ip), vehicle: Klucel (hydroxypropylcellulose) (HPC)): 95 % of control
T/C [14]: 96 % of control
T/C (dose: 100.0 mg/kg/injection, schedule: Q04DX002 (ip), vehicle: Klucel (hydroxypropylcellulose) (HPC)): 96 % of control
T/C (dose: 200.0 mg/kg/injection, schedule: Q01DX005 (ip), vehicle: Klucel (hydroxypropylcellulose) (HPC)): 98 % of control
T/C [15]: 104 % of control
T/C (dose: 200.0 mg/kg/injection, schedule: Q04DX002 (ip), vehicle: Klucel (hydroxypropylcellulose) (HPC)): 90 % of control
T/C (dose: 400.0 mg/kg/injection, schedule: Q01DX005 (ip), vehicle: Klucel (hydroxypropylcellulose) (HPC)): 103 % of control
T/C (dose: 400.0 mg/kg/injection, schedule: Q01DX009 (ip), vehicle: Klucel (hydroxypropylcellulose) (HPC)): 93 % of control
T/C (dose: 400.0 mg/kg/injection, schedule: Q04DX002 (ip), vehicle: Klucel (hydroxypropylcellulose) (HPC)): 101 % of control

CC1CCC2(O)C3(C)CC4(O)OC2(C1O)C1(O)C3(O)C(OC(=O)c2ccc[nH]2)C(O)(C(C)C)C41C (centres undefined)
T/C (dose: 0.25 mg/kg/injection, schedule: Q01DX001 (ip), vehicle: carboxymethylcellulose (CMC)): 93 % of control

CC(=O)c1ccc(OC(=O)Nc2ccc(Cl)cc2)cc1
T/C (dose: 25.0 mg/kg/injection, schedule: Q01DX009 (ip), vehicle: saline with Tween-80): 106 % of control and 108 % of control
T/C [6]: 106 % of control and 112 % of control
T/C (dose: 100.0 mg/kg/injection, schedule: Q04DX002 (ip), vehicle: saline with Tween-80): 100 % of control and 103 % of control
T/C [2]: 103 % of control
T/C (dose: 200.0 mg/kg/injection, schedule: Q04DX002 (ip), vehicle: saline with Tween-80): 95 % of control and 92 % of control
T/C [4]: 108 % of control
T/C (dose: 400.0 mg/kg/injection, schedule: Q04DX002 (ip), vehicle: saline with Tween-80): 97 % of control and 100 % of control

C/C(CSc1ncnc2nc[nH]c12)=N\NC(N)=S
T/C (dose: 50.0 mg/kg/injection, schedule: Q04DX003 (ip), vehicle: saline with Tween-80): 101 % of control
T/C [2]: 95 % of control and 102 % of control
T/C [4]: 93 % of control
T/C [10]: 104 % of control

O=C(O)c1cc2ccccc2s1
T/C (dose: 50.0 mg/kg/injection, schedule: Q01DX009 (ip), vehicle: Klucel (hydroxypropylcellulose) (HPC)): 98 % of control
T/C [14]: 101 % of control
T/C [11]: 102 % of control
T/C [15]: 95 % of control
T/C [12]: 94 % of control

CC12CCC3C(CCC4CC(O)CCC43C)C1CCCC2=O (centres undefined)
T/C (dose: 75.0 mg/kg/injection, schedule: Q04DX003 (sc), vehicle: steriod suspending solution): 102 % of control
T/C (dose: 150.0 mg/kg/injection, schedule: Q04DX003 (sc), vehicle: steriod suspending solution): 93 % of control
T/C (dose: 300.0 mg/kg/injection, schedule: Q04DX003 (sc), vehicle: steriod suspending solution): 91 % of control
